Activity calls are given as the source filed them. No cut-off for these calls is given here.
Tests used:
C6 [1] = test: Antiproliferative activity against rat C6 cells after 48 hrs by MTT assay; format: functional, cell-based; details: C6, 48 h
[2] = Cytotoxicity against mouse astrocytes assessed as decrease in cell viability at 10 uM after 48 hrs by neutral red incorporation assay; format: cell-based; details: astrocyte
[3] = Cytotoxicity against mouse astrocytes assessed as decrease in cell viability after 48 hrs by propidium iodide incorporation assay; format: cell-based; details: astrocyte
SF-295 = test: Antiproliferative activity against human SF295 cells at 10 uM after 24 hrs by SRB assay; format: functional, cell-based
[4] = Cytotoxicity against mouse astrocytes assessed as decrease in cell viability after 48 hrs by Hoechst 33342 staining; format: cell-based; details: astrocyte
SNB-75 = test: Antiproliferative activity against human SNB75 cells at 10 uM after 24 hrs by SRB assay; format: functional, cell-based
C6 [5] = test: Antiproliferative activity against rat C6 cells at 0.1 to 10 uM after 48 hrs by neutral red incorporation assay; format: functional, cell-based
[6] = Cytotoxicity against mouse astrocytes assessed as decrease in cell viability at 1 to 100 uM after 48 hrs by propidium iodide incorporation assay; format: cell-based; details: astrocyte
[7] = Cytotoxicity against mouse astrocytes assessed as decrease in cell viability at 1 to 100 uM after 48 hrs by Hoechst 33342 staining; format: cell-based; details: astrocyte
[8] = Cytotoxicity against mouse astrocytes assessed as decrease in cell viability at 1 to 100 uM after 48 hrs by neutral red incorporation assay; format: cell-based; details: astrocyte
C6 [9] = test: Antiproliferative activity against rat C6 cells at 100 uM after 48 hrs by neutral red incorporation assay; format: functional, cell-based

SMILES	EC50 (C6 [1])	also measured
O=[P@]1(c2cccc(C(F)(F)F)c2)O[C@H](COCc2ccccc2)[C@@H](OCc2ccccc2)[C@H](OCc2ccccc2)[C@@H]1O	> 25 µM	
COc1cccc([P@@]2(=O)O[C@H](COCc3ccccc3)[C@@H](OCc3ccccc3)[C@H](OCc3ccccc3)[C@@H]2O)c1	> 25 µM	
O=[P@]1(c2ccccc2)O[C@H](COCc2ccccc2)[C@@H](OCc2ccccc2)[C@H](OCc2ccccc2)[C@@H]1O (single isomer, unassigned)	12 µM	
Cc1cccc([P@@]2(=O)O[C@H](COCc3ccccc3)[C@@H](OCc3ccccc3)[C@H](OCc3ccccc3)[C@H]2O)c1	> 25 µM	
COc1cccc([P@]2(=O)O[C@H](COCc3ccccc3)[C@@H](OCc3ccccc3)[C@H](OCc3ccccc3)[C@H]2O)c1	> 25 µM	
O=[P@]1(c2cccc(F)c2)O[C@H](COCc2ccccc2)[C@@H](OCc2ccccc2)[C@H](OCc2ccccc2)[C@H]1O	> 25 µM	
O=[P@@]1(c2cccc(C(F)(F)F)c2)O[C@H](COCc2ccccc2)[C@@H](OCc2ccccc2)[C@H](OCc2ccccc2)[C@@H]1O	> 25 µM	
COc1cccc([P@]2(=O)O[C@H](COCc3ccccc3)[C@@H](OCc3ccccc3)[C@H](OCc3ccccc3)[C@@H]2O)c1	> 25 µM	
Cc1cccc([P@]2(=O)O[C@H](COCc3ccccc3)[C@@H](OCc3ccccc3)[C@H](OCc3ccccc3)[C@H]2O)c1	> 25 µM	
O=C(Nc1ccccc1)N[C@@H]1[C@@H](OCc2ccccc2)[C@H](OCc2ccccc2)[C@@H](COCc2ccccc2)O[P@@]1(=O)c1ccccc1	4.4 µM	
N[C@@H]1[C@@H](OCc2ccccc2)[C@H](OCc2ccccc2)[C@@H](COCc2ccccc2)O[P@@]1(=O)c1ccccc1	16.3 µM	
C=CCN[C@@H]1[C@@H](OCc2ccccc2)[C@H](OCc2ccccc2)[C@@H](COCc2ccccc2)O[P@@]1(=O)c1ccccc1	0.49 µM	
[N-]=[N+]=N[C@H]1[C@@H](OCc2ccccc2)[C@H](OCc2ccccc2)[C@@H](COCc2ccccc2)O[P@@]1(=O)c1ccccc1	> 25 µM	
CSC(=S)O[C@@H]1[C@@H](OCc2ccccc2)[C@H](OCc2ccccc2)[C@@H](COCc2ccccc2)O[P@@]1(=O)c1ccccc1	14 µM	
Cc1cccc([P@@]2(=O)O[C@H](COCc3ccccc3)[C@@H](OCc3ccccc3)[C@H](OCc3ccccc3)[C@@H]2O)c1	> 25 µM	
COc1ccc([P@]2(=O)O[C@H](COCc3ccccc3)[C@@H](OCc3ccccc3)[C@H](OCc3ccccc3)[C@@H]2O)cc1	2.9 µM	
O=C(O[C@@H]1[C@@H](OCc2ccccc2)[C@H](OCc2ccccc2)[C@@H](COCc2ccccc2)O[P@@]1(=O)c1ccccc1)c1ccccc1	> 25 µM	
COc1ccc([P@@]2(=O)O[C@H](COCc3ccccc3)[C@@H](OCc3ccccc3)[C@H](OCc3ccccc3)[C@@H]2O)cc1	15 µM	
COc1ccc([P@@]2(=O)O[C@H](COCc3ccccc3)[C@@H](OCc3ccccc3)[C@H](OCc3ccccc3)[C@H]2O)cc1	15 µM	
CSC(=S)O[C@H]1[C@@H](OCc2ccccc2)[C@H](OCc2ccccc2)[C@@H](COCc2ccccc2)O[P@@]1(=O)c1ccccc1	> 25 µM	
O=C(O[C@@H]1[C@@H](OCc2ccccc2)[C@H](OCc2ccccc2)[C@@H](COCc2ccccc2)O[P@@]1(=O)c1ccccc1)C(F)(F)F	> 25 µM	
Cc1ccc([P@]2(=O)O[C@H](COCc3ccccc3)[C@@H](OCc3ccccc3)[C@H](OCc3ccccc3)[C@@H]2O)cc1	> 25 µM	

SMILES	EC50 (C6 [1])	also measured
O=[P@]1(c2ccccc2)C[C@@H](OCc2ccccc2)[C@H](OCc2ccccc2)[C@@H](COCc2ccccc2)O1	8.3 µM	
CC(=O)O[C@H]1C(=O)[C@@]2(C)[C@H]([C@H](OC(=O)c3ccccc3)[C@]3(O)C[C@H](OC(=O)[C@H](O)[C@@H](NC(=O)c4ccccc4)c4ccccc4)C(C)=C1C3(C)C)[C@]1(OC(C)=O)CO[C@@H]1C[C@@H]2O [PACLITAXEL]		Activity [2]: 28%; Activity [3]: Dose-dependent effect; growth inhibition (GI) (SF-295): Active; Activity [4]: Dose-dependent effect; growth inhibition (GI) (SNB-75): Active; Activity (C6 [5]): Active
CO[C@@H]1[C@@H](OCc2ccccc2)[C@H](OCc2ccccc2)[C@@H](COCc2ccccc2)O[P@@]1(=O)c1ccccc1	16.6 µM	
O=[P@@]1(c2ccccc2)O[C@H](COCc2ccccc2)[C@@H](OCc2ccccc2)[C@H](OCc2ccccc2)[C@H]1OCc1ccccc1	5.3 µM	
O=[P@]1(c2cccc(F)c2)O[C@H](COCc2ccccc2)[C@@H](OCc2ccccc2)[C@H](OCc2ccccc2)[C@@H]1O	> 25 µM	
O=[P@]1(c2ccccc2)O[C@H](COCc2ccccc2)[C@@H](OCc2ccccc2)[C@H](OCc2ccccc2)[C@H]1O	12 µM	
Cc1cccc([P@]2(=O)O[C@H](COCc3ccccc3)[C@@H](OCc3ccccc3)[C@H](OCc3ccccc3)[C@@H]2O)c1	> 25 µM	
COc1cccc([P@@]2(=O)O[C@H](COCc3ccccc3)[C@@H](OCc3ccccc3)[C@H](OCc3ccccc3)[C@H]2O)c1	> 25 µM	
O=[P@@]1(c2ccccc2)O[C@H](COCc2ccccc2)[C@@H](OCc2ccccc2)[C@H](OCc2ccccc2)[C@H]1NCc1ccccc1	2.68 µM	
O=[P@]1(c2cccc(C(F)(F)F)c2)O[C@H](COCc2ccccc2)[C@@H](OCc2ccccc2)[C@H](OCc2ccccc2)[C@H]1O	> 25 µM	
N[C@H]1[C@@H](OCc2ccccc2)[C@H](OCc2ccccc2)[C@@H](COCc2ccccc2)O[P@@]1(=O)c1ccccc1	18.7 µM	
COc1ccc([P@]2(=O)O[C@H](COCc3ccccc3)[C@@H](OCc3ccccc3)[C@H](OCc3ccccc3)[C@H]2O)cc1	8.4 µM	
O=[P@@]1(c2cccc(F)c2)O[C@H](COCc2ccccc2)[C@@H](OCc2ccccc2)[C@H](OCc2ccccc2)[C@@H]1O	> 25 µM	
O=[P@@]1(c2cccc(C(F)(F)F)c2)O[C@H](COCc2ccccc2)[C@@H](OCc2ccccc2)[C@H](OCc2ccccc2)[C@H]1O	> 25 µM	
O=[P@@]1(c2cccc(F)c2)O[C@H](COCc2ccccc2)[C@@H](OCc2ccccc2)[C@H](OCc2ccccc2)[C@H]1O	> 25 µM	
Cc1ccc([P@]2(=O)O[C@H](COCc3ccccc3)[C@@H](OCc3ccccc3)[C@H](OCc3ccccc3)[C@H]2O)cc1	> 25 µM	
Cc1ccc([P@@]2(=O)O[C@H](COCc3ccccc3)[C@@H](OCc3ccccc3)[C@H](OCc3ccccc3)[C@H]2O)cc1	> 25 µM	
O=NN(CCCl)C(=O)NCCCl [CARMUSTINE]		Activity [6]: Non-toxic; Activity [7]: Non-toxic; Activity [8]: Non-toxic; Activity (C6 [5]): Active
CC(=O)O[C@@H]1[C@@H](OCc2ccccc2)[C@H](OCc2ccccc2)[C@@H](COCc2ccccc2)O[P@@]1(=O)c1ccccc1	11.9 µM	
Cn1nnc2c(C(N)=O)ncn2c1=O [TEMOZOLOMIDE]		Activity (C6 [9]): Active; growth inhibition (GI) (SF-295): Active; Activity [6]: Non-toxic; growth inhibition (GI) (SNB-75): Active; Activity [7]: Non-toxic; Activity [8]: Non-toxic
[N-]=[N+]=N[C@@H]1[C@@H](OCc2ccccc2)[C@H](OCc2ccccc2)[C@@H](COCc2ccccc2)O[P@@]1(=O)c1ccccc1	16.7 µM	
Cc1ccc([P@@]2(=O)O[C@H](COCc3ccccc3)[C@@H](OCc3ccccc3)[C@H](OCc3ccccc3)[C@@H]2O)cc1	> 25 µM	
